# Legend:
# [1] = system: HIV-1 TAR RNA (wild-type); experiment: Specificity of oligourea-TAR complex formation by competition with unlabeled TAR RNAs; assay type: binding
# From the text: (§1) FIG. 2A: Secondary structure of wild-type TAR RNA used in this study. Wild-type TAR RNA spans the minimal sequences that are required for Tat responsiveness in vivo ^14 and for in vitro binding of Tat-derived peptides.^9 Wild-type TAR contains two non-wild-type base pairs to increase transcription by T7 RNA polymerase. Mutant M0 TAR contained no bulge residue in its sequence. In mutant G26C, a base-pair in the upper stem of TAR RNA, G26-C39 was substituted by C26-G39. FIG. 2B: Electrophoretic mobility shift analysis for the Tat-derived oligourea binding to wild-type and trinucleotide bulge mutant (M0) TAR RNA. 5′-end labeled TAR RNAs (40 nM) were heated to 85° C. for three minutes mm and then cooled to room temperature in TK buffer (50 mM Tris-HCl pH 7.4), 20 mM KCl, 0.1% Triton X-100). The oligourea (150 nM) was added to wild-type or mutant TAR and incubated at room temperature for one hour. After adding 30% glycerol, the oligourea-RNA complexes were resolved on a non-denaturing 12% acrylamide gel and visualized by autoradiography or phosphorimaging. FIG. 2C: Specificity of the oligourea-TAR complex formation determined by competition experiments. Oligourea-RNA complexes were formed in the presence of increasing concentrations of unlabeled wild-type or mutant TAR RNAs. Concentrations of the competitor RNAs in lanes 3, 4, 5, 6 were 50, 100, 150, and 200 nM, respectively. Lanes 1 and 2 were marker lanes showing RNA and oligoureaRNA complexes. Oligourea-RNA complexes are labeled as R—P.
# Specificity of the oligourea-TAR RNA complex formation was addressed by competition experiments (FIG. 2c).
# Two base-pairs immediately above the pyrimidine bulge are critical for Tat recognition.^9 To determine whether the oligourea recognizes specific base-pairs in the stem region of TAR RNA or only a trinucleotide bulge containing RNA, we synthesized a TAR mutant where the G26-C39 base pair was substituted by a C26-G39 base-pair (FIG. 2a).
# [2] = system: Tat transactivation (HIV-1 LTR); experiment: Inhibition of Tat transactivation, CAT activity from integrated HIV-1 LTR of HL3TI cells; assay type: cell-based; conditions: luciferase as control
# Experimental: FIG. 4. […] CAT activity expressed from the integrated HIV-1 LTR of HL3TI Cells with increasing amounts of oligourea is shown. Luciferase activity was a control experiment to monitor the transfection inhibition of pSV2Tat by the addition of oligourea. CAT and Luciferase activities were measured from multiple experiments and normalized to 100%.
# proteinase K [3] = target: T1, proteinase K (Parengyodontium album, UniProt P06873); experiment: Proteinase K digestion of RNA crosslink products (protease stability); assay type: in vitro ADME; conditions: 55° C., fifteen minutes after UV irradiation
# Experimental: FIG. 3. Site-specific photocrosslinking reaction of TAR RNA labeled with 4-thioUracil at position 23 with the oligourea. For photochemical reactions, RNA duplex was prepared by hybridizing two strands.^5,7 Strand 1 of the duplex was 5′-end labeled with 32p Preformed RNA duplexes (40 nM) in the absence or presence of the oligourea (100 nM) were irradiated ([…]) and analyzed by denaturing gels as described earlier.^5,7 Proteinase K digestion was performed at 55° C. for fifteen minutes after LW irradiation. R—R and R—P XL indicate the RNA—RNA and RNA-oligourea crosslink, respectively.
# To probe the oligourea-RNA interactions and determine the proteolysis stability of oligourea, we synthesized TAR RNA containing 4-thioU at position 23 and performed photocrosslinking experiments as described earlier (FIG. 3).^5,7 Irradiation of the oligourea-RNA complex yields a new band with electrophoretic mobility less than that of the RNA (lane 4). Both the oligourea and UV (360 nm) irradiation are required for the formation of this crosslinked RNA-oligourea complex (see lanes 3 and 4). Since the crosslinked oligourea-RNA complex is stable to alkaline pH (9.5), high temperature (85° C.) and denaturing conditions (8M urea, 2% SDS), we conclude that a covalent bond is formed between TAR RNA and the oligourea during the crosslinking reaction.
# [4] = system: HIV-1 TAR RNA (wild-type); experiment: Direct and competition electrophoretic mobility assays, oligourea/peptide-TAR RNA complexes; assay type: binding; conditions: for Kd: multiple sets of experiments, read-out: KD (equilibrium dissociation constant) for TAR RNA
# From the text: as §1
# To compare the RNA-binding affinities of the oligourea to natural peptide, we synthesized a tat-derived peptide (Tyr47 to Arg57) containing the RNA-binding domain of Tat protein (FIG. 1). Dissociation constants of the Tat peptide-RNA complexes were determined from multiple sets of experiments under the same conditions used for oligourea-TAR RNA complexes. […] A relative dissociation constant (KREL) can be determined by measuring the ratios of wild-type Tat peptide to the oligourea dissociation constants (KD) for TAR RNA.
# [5] = system: mutant TAR RNA without the bulge residues (M0); experiment: Electrophoretic mobility shift analysis with trinucleotide bulge mutant (M0) TAR RNA; assay type: binding, HIV-1; conditions: M0 TAR RNA 40 nM, oligourea 150 nM
# From the text: as §1, with “Lanes 1 and 2 were marker lanes showing RNA and oligoureaRNA complexes. Oligourea-RNA complexes are labeled as R—P.” left out
# [6] = target: Tat-derived oligourea (unnatural urea backbone carrying Tat 48-57 side chains) (HIV-1) (UniProt P04608); experiment: EMSA
# [7] = system: Tat peptide (47-57), arginine-rich RNA-binding domain (HIV-1); experiment: EMSA; conditions: printed 0.78+0.05; same conditions as the oligourea
# proteinase K [8] = target: T1, proteinase K; conditions: similar proteinase K treatment; cited from earlier work
# T1 sequence (P06873 106-384): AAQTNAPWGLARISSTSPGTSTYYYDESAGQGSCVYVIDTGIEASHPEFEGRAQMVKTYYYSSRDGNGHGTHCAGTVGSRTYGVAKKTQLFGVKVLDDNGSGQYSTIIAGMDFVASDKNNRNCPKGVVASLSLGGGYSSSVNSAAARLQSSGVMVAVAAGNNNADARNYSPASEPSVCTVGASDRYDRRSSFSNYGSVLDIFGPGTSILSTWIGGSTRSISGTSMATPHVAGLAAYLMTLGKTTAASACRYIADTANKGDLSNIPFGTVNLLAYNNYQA
substance,measurement,setting,value
GRKKRRQRRR [oligourea],competition by mutant TAR (G26C) for oligourea binding to TAR RNA,[1]; competitor G26C TAR RNA (G26-C39 replaced by C26-G39),did not inhibit
same,competition by mutant TAR RNA without a trinucleotide bulge for oligourea binding to wild-type TAR RNA,[1]; competitor M0 TAR RNA 50-200 nM,not able to compete
same,competition by mutant TAR RNA with one base bulge for oligourea binding to wild-type TAR RNA,"[1]; competitor one base bulge TAR RNA, data not shown",not able to compete
same,oligourea-RNA complex formation on addition of unlabeled wild-type TAR RNA,[1]; competitor wild-type TAR RNA 50-200 nM,inhibited
same,Tat transactivation (CAT activity) with increasing amounts of oligourea,[2],Inhibition of Tat transactivation
same,stability of RNA crosslink products to proteinase K digestion,proteinase K [3],completely stable
same,relative dissociation constant KREL (ratio of wild-type Tat peptide KD to oligourea KD for TAR RNA),[4]; wild-type TAR RNA,7.09
same,binding to TAR RNA (mobility shift),"[4]; wild-type TAR RNA 40 nM, oligourea 150 nM",able to bind TAR RNA
same,Kd,[4]; wild-type TAR RNA,110 ± 70 nM
same,binding to mutant TAR RNA without the bulge residues,[5],failed to bind
wild-type TAR RNA,Kd,[6],110 nM
same,Kd,[7],780 nM
Tat: Tat of the Tat-TAR photocrosslink products from earlier cited work (ref. 5),stability of Tat-TAR photocrosslink products to proteinase K treatment,proteinase K [8],complete loss of RNA-protein crosslink
Tat peptide (47–57): tat-derived peptide (Tyr47 to Arg57) containing the RNA-binding domain of Tat protein [reference compound],Kd,[4]; wild-type TAR RNA,780 nM
